Reference: ChEMBL document CHEMBL4414590, “Discovery of SIAIS178 as an Effective BCR-ABL Degrader by Recruiting Von Hippel-Lindau (VHL) E3 Ubiquitin Ligase” (J Med Chem, 2019)
Blank lines part the entries; values can stand above or below the compound they belong to. Active and inactive are the calls of the source. No cut-off for these calls is given here.

Tests used:
[1] = tested on: K562; experiment: Growth inhibition of human K562 cells incubated for 2 days by CCK8 assay; format: functional, cell-based; settings: K562, 48 h
[2] = molecular target: T1, von Hippel-Lindau disease tumor suppressor/Tyrosine-protein kinase ABL1/Breakpoint cluster region protein (Homo sapiens, UniProt P00519+P11274+P40337); experiment: Induction of ternary complex formation between VHL and BCR-ABL (unknown origin) expressed in HEK293 cells expressing N-terminal BCR-ABL LgBit fusion protein and N-terminal SmBit-VHL fusion protein incubated for 1 hr by NanoBit technology based luciferase complementation assay; format: cell-based
Target sequence in this assay (P00519 whole entry, looked up, the tested form may be a part): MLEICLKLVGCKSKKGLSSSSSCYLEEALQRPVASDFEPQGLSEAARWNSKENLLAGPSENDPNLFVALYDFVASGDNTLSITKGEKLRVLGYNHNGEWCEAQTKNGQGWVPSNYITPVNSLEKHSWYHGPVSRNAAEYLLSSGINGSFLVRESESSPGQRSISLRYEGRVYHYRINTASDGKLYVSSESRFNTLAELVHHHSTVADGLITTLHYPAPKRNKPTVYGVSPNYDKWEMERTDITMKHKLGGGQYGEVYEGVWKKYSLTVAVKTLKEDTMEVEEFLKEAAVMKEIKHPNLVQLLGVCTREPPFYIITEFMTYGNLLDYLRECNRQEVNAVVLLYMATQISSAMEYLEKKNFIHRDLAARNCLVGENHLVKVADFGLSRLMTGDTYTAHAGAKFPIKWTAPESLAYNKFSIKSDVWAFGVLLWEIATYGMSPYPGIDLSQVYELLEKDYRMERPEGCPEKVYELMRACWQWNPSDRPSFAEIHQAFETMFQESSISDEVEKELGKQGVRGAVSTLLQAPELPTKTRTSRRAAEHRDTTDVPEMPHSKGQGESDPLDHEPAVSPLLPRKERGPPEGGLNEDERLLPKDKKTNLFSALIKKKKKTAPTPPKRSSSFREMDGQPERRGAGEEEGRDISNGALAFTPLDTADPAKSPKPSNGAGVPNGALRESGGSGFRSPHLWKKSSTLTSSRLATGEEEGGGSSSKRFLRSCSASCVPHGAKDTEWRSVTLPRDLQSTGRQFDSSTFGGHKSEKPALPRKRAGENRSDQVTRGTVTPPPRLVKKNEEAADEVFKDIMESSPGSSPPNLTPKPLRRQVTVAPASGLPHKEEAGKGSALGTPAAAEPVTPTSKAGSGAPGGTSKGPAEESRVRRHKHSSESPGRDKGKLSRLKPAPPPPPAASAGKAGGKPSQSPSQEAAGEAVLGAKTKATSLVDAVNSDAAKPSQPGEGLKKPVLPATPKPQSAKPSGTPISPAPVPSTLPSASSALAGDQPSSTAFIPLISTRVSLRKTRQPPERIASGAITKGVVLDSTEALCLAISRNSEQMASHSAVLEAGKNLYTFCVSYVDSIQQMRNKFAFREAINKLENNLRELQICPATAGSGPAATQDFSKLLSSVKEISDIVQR
Target sequence in this assay (P11274 whole entry, looked up, the tested form may be a part): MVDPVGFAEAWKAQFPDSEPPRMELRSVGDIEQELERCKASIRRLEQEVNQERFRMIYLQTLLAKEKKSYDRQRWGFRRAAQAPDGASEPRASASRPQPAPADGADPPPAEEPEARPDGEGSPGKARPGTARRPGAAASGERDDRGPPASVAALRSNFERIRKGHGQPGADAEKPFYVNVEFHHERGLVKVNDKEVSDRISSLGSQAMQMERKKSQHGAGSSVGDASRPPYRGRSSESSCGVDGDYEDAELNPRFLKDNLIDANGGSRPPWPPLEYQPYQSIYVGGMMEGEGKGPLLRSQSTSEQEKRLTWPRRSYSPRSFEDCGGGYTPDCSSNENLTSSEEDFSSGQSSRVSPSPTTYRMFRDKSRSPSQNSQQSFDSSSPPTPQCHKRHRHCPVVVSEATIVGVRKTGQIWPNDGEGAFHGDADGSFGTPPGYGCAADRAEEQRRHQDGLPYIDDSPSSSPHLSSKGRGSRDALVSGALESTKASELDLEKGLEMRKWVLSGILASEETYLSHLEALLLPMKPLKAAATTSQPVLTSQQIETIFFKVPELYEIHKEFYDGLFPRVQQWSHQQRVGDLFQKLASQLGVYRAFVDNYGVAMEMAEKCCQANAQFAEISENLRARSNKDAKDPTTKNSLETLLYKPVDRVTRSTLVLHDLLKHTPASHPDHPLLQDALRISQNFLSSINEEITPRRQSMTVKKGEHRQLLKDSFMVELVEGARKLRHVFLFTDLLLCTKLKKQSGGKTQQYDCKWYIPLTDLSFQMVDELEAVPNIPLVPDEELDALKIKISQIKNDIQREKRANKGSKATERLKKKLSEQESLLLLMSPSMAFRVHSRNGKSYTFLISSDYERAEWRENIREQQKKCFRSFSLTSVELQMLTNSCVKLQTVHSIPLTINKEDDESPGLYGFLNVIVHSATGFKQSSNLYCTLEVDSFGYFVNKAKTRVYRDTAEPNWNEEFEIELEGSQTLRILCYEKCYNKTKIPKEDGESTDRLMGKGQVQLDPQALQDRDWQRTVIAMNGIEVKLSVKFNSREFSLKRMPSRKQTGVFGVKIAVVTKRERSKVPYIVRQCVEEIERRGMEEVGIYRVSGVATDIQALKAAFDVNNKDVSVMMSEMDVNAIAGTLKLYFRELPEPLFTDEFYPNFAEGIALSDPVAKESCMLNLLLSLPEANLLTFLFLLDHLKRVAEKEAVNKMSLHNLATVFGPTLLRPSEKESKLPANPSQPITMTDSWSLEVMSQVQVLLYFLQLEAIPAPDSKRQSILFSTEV
Target sequence in this assay (P40337 whole entry, looked up, the tested form may be a part): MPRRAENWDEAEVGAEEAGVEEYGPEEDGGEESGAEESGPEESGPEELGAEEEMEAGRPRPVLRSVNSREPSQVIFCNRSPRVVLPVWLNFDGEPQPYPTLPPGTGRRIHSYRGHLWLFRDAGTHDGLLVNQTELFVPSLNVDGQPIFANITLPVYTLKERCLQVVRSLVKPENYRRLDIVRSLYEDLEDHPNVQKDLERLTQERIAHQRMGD

[3] = Permeability in human Caco2 cells at 10 uM incubated for 120 mins by LC-MS/MS analysis; format: ADME, cell-based; settings: caco-2, 2 h
[4] = molecular target: Tyrosine-protein kinase ABL1 (Homo sapiens) (UniProt P00519); experiment: Binding affinity to human non-phosphorylated ABL1 (S229 to K512 residues) expressed in mammalian expression system assessed as residual binding level at 10 uM by Kinomescan method relative to control
[5] = molecular target: Tyrosine-protein kinase ABL1 (Homo sapiens) (UniProt P00519); experiment: Binding affinity to human phosphorylated ABL1 (S229 to K512 residues) expressed in mammalian expression system assessed as residual binding level at 10 uM by Kinomescan method relative to control
[6] = molecular target: T1, von Hippel-Lindau disease tumor suppressor/Tyrosine-protein kinase ABL1/Breakpoint cluster region protein; experiment: Protac activity against VHL/BCR-ABL in human K562 cells assessed as induction of BCR-ABL degradation by Western blot analysis; format: cell-based
Target sequence in this assay (P00519 whole entry, the tested form may be a part): as the sequence (P00519 whole entry, looked up, the tested form may be a part) above
Target sequence in this assay (P11274 whole entry, the tested form may be a part): as the sequence (P11274 whole entry, looked up, the tested form may be a part) above
Target sequence in this assay (P40337 whole entry, the tested form may be a part): as the sequence (P40337 whole entry, looked up, the tested form may be a part) above

[7] = tested on: K562; experiment: Antitumor activity against luciferse expressing human K562 cells xenografted in NOD/SCID mouse assessed as attenuation of tumor progression at 5 to 15 mg/kg, ip QD for 12 days by serial volumetric analysis; format: functional, organism-based
[8] = molecular target: T2, Bcr/Abl fusion protein (Homo sapiens) (UniProt P00519+P11274); experiment: Inhibition of BCR-ABL in human K562 cells assessed as reduction in STAT5 phosphorylation at 1 to 100 nM by Western blot analysis; format: cell-based
[9] = molecular target: T1, von Hippel-Lindau disease tumor suppressor/Tyrosine-protein kinase ABL1/Breakpoint cluster region protein; experiment: Protac activity against VHL/BCR-ABL in NOD/SCID mouse xenografted with luciferse expressing human K562 cells assessed as induction of BCR-ABL degradation at 15 mg/kg, ip QD for 4 days by Western blotting analysis; format: functional, organism-based
Target sequence in this assay (P00519 whole entry, looked up, the tested form may be a part): as the sequence (P00519 whole entry, looked up, the tested form may be a part) above
Target sequence in this assay (P11274 whole entry, looked up, the tested form may be a part): as the sequence (P11274 whole entry, looked up, the tested form may be a part) above
Target sequence in this assay (P40337 whole entry, looked up, the tested form may be a part): as the sequence (P40337 whole entry, looked up, the tested form may be a part) above

[10] = tested on: K562; experiment: Growth inhibition of human K562 cells assessed as reduction in cell density at 20 times IC50 incubated for 12 hrs followed by drug wash-out and incubation in drug-free medium up to 144 hrs by CCK8 assay; format: functional, cell-based
[11] = tested on: Mus musculus; experiment: Inhibition of BCR-ABL phosphorylation in NOD/SCID mouse xenografted with luciferse expressing human K562 cells at 5 to 15 mg/kg, ip QD for 4 days by Western blotting analysis; format: functional, organism-based
[12] = molecular target: T1, von Hippel-Lindau disease tumor suppressor/Tyrosine-protein kinase ABL1/Breakpoint cluster region protein; experiment: Induction of ternary complex formation between VHL and BCR-ABL (unknown origin) expressed in HEK293 cells expressing N-terminal BCR-ABL LgBit fusion protein and N-terminal SmBit-VHL fusion protein at 1 uM incubated for 1 hr by NanoBit technology based luciferase complementation assay; format: cell-based
Target sequence in this assay (P00519 whole entry, looked up, the tested form may be a part): as the sequence (P00519 whole entry, looked up, the tested form may be a part) above
Target sequence in this assay (P11274 whole entry, looked up, the tested form may be a part): as the sequence (P11274 whole entry, looked up, the tested form may be a part) above
Target sequence in this assay (P40337 whole entry, looked up, the tested form may be a part): as the sequence (P40337 whole entry, looked up, the tested form may be a part) above

[13] = molecular target: T1, von Hippel-Lindau disease tumor suppressor/Tyrosine-protein kinase ABL1/Breakpoint cluster region protein; experiment: Protac activity against VHL/BCR-ABL in human K562 cells assessed as induction of BCR-ABL degradation at 1 to 100 nM by Western blot analysis; format: cell-based
Target sequence in this assay (P00519 whole entry, looked up, the tested form may be a part): as the sequence (P00519 whole entry, looked up, the tested form may be a part) above
Target sequence in this assay (P11274 whole entry, looked up, the tested form may be a part): as the sequence (P11274 whole entry, looked up, the tested form may be a part) above
Target sequence in this assay (P40337 whole entry, looked up, the tested form may be a part): as the sequence (P40337 whole entry, looked up, the tested form may be a part) above

[14] = tested on: K562; experiment: Induction of cell death in human K562 cells assessed as reduction in cell viability at 20 times IC50 incubated for 12 hrs followed by drug wash-out and incubation in drug-free medium up to 144 hrs by CCK8 assay; format: functional, cell-based
[15] = molecular target: T2, Bcr/Abl fusion protein (Homo sapiens); experiment: Inhibition of BCR-ABL phosphorylation in human K562 cells at 1 to 100 nM by Western blot analysis; format: cell-based
[16] = tested on: K562; experiment: Antitumor activity against luciferse expressing human K562 cells xenografted in NOD/SCID mouse assessed as attenuation of tumor progression at 5 mg/kg, ip QD for 12 days by serial volumetric analysis; format: functional, organism-based

T2 sequence (P00519 whole entry, looked up, the tested form may be a part): as the sequence (P00519 whole entry, looked up, the tested form may be a part) above
T2 sequence (P11274 whole entry, looked up, the tested form may be a part): as the sequence (P11274 whole entry, looked up, the tested form may be a part) above
Chain of Tyrosine-protein kinase ABL1 (Homo sapiens) (P00519 whole entry, the tested form may be a part): as the sequence (P00519 whole entry, looked up, the tested form may be a part) above

Structure (SMILES): Cc1nc(Nc2ncc(C(=O)Nc3c(C)cccc3Cl)s2)cc(N2CCN(C(=O)CCOCCOCCOCCC(=O)N[C@H](C(=O)N3C[C@H](O)C[C@H]3C(=O)NCc3ccc(-c4scnc4C)cc3)C(C)(C)C)CC2)n1
IC50 [1]: 3430 nM

Structure (SMILES): Cc1nc(Nc2ncc(C(=O)Nc3c(C)cccc3Cl)s2)cc(N2CCN(C(=O)COCCOCC(=O)N[C@H](C(=O)N3C[C@H](O)C[C@H]3C(=O)NCc3ccc(-c4scnc4C)cc3)C(C)(C)C)CC2)n1
IC50 [1]: 2240 nM

Structure (SMILES): Cc1nc(Nc2ncc(C(=O)Nc3c(C)cccc3Cl)s2)cc(N2CCN(C(=O)CNC(=O)CCCC(=O)N[C@H](C(=O)N3C[C@H](O)C[C@H]3C(=O)NCc3ccc(-c4scnc4C)cc3)C(C)(C)C)CC2)n1
IC50 [1]: 68.2 nM

Structure (SMILES): Cc1nc(Nc2ncc(C(=O)Nc3c(C)cccc3Cl)s2)cc(N2CCN(C(=O)COCCOCCOCC(=O)N[C@H](C(=O)N3C[C@H](O)C[C@H]3C(=O)NCc3ccc(-c4scnc4C)cc3)C(C)(C)C)CC2)n1
Activity [2]: Active
permeability [3]: Permeable
Activity [4]: Active
Activity [5]: Active

Structure (SMILES): Cc1nc(Nc2ncc(C(=O)Nc3c(C)cccc3Cl)s2)cc(N2CCN(C(=O)CCCC(=O)N[C@H](C(=O)N3C[C@H](O)C[C@H]3C(=O)NCc3ccc(-c4scnc4C)cc3)C(C)(C)C)CC2)n1
DC50 [6]: 40.2 nM
IC50 [1]: 87 nM

Structure (SMILES): Cc1nc(Nc2ncc(C(=O)Nc3c(C)cccc3Cl)s2)cc(N2CCN(C(=O)CCCCCCC(=O)N[C@H](C(=O)N3C[C@@H](O)C[C@H]3C(=O)NCc3ccc(-c4scnc4C)cc3)C(C)(C)C)CC2)n1
Activity [7]: inactive
inhibition [8]: Active
Activity [9]: inactive
growth inhibition (GI) [10]: inactive
inhibition [11]: Active
Activity [12]: inactive
Activity [13]: inactive
Activity [14]: inactive
inhibition [15]: Active

Structure (SMILES): Cc1nc(Nc2ncc(C(=O)Nc3c(C)cccc3Cl)s2)cc(N2CCN(C(=O)CCOCCOCCOCCOCCOCCC(=O)N[C@H](C(=O)N3C[C@H](O)C[C@H]3C(=O)NCc3ccc(-c4scnc4C)cc3)C(C)(C)C)CC2)n1
IC50 [1]: 1610 nM

Structure (SMILES): Cc1nc(Nc2ncc(C(=O)Nc3c(C)cccc3Cl)s2)cc(N2CCN(C(=O)CCC(=O)N[C@H](C(=O)N3C[C@H](O)C[C@H]3C(=O)NCc3ccc(-c4scnc4C)cc3)C(C)(C)C)CC2)n1
DC50 [6]: 611 nM
IC50 [1]: 78 nM

Structure (SMILES): Cc1nc(Nc2ncc(C(=O)Nc3c(C)cccc3Cl)s2)cc(N2CCN(C(=O)CCOCCOCCOCCOCCC(=O)N[C@H](C(=O)N3C[C@H](O)C[C@H]3C(=O)NCc3ccc(-c4scnc4C)cc3)C(C)(C)C)CC2)n1
IC50 [1]: 2160 nM

Structure (SMILES): Cc1nc(Nc2ncc(C(=O)Nc3c(C)cccc3Cl)s2)cc(N2CCN(C(=O)CCCCNC(=O)CCCCCCCCC(=O)N[C@H](C(=O)N3C[C@H](O)C[C@H]3C(=O)NCc3ccc(-c4scnc4C)cc3)C(C)(C)C)CC2)n1
IC50 [1]: 72 nM

Structure (SMILES): Cc1nc(Nc2ncc(C(=O)Nc3c(C)cccc3Cl)s2)cc(N2CCN(C(=O)CCCCCCCCCCCCCCC(=O)N[C@H](C(=O)N3C[C@H](O)C[C@H]3C(=O)NCc3ccc(-c4scnc4C)cc3)C(C)(C)C)CC2)n1
IC50 [1]: 32.3 nM

Structure (SMILES): Cc1nc(Nc2ncc(C(=O)Nc3c(C)cccc3Cl)s2)cc(N2CCN(C(=O)CCCCCC(=O)N[C@H](C(=O)N3C[C@H](O)C[C@H]3C(=O)NCc3ccc(-c4scnc4C)cc3)C(C)(C)C)CC2)n1
DC50 [6]: 17.9 nM
IC50 [1]: 37.6 nM

Structure (SMILES): Cc1nc(Nc2ncc(C(=O)Nc3c(C)cccc3Cl)s2)cc(N2CCN(C(=O)CCCCC(=O)N[C@H](C(=O)N3C[C@H](O)C[C@H]3C(=O)NCc3ccc(-c4scnc4C)cc3)C(C)(C)C)CC2)n1
DC50 [6]: 34.7 nM
IC50 [1]: 89 nM

Structure (SMILES): Cc1nc(Nc2ncc(C(=O)Nc3c(C)cccc3Cl)s2)cc(N2CCN(C(=O)CCOCCOCCC(=O)N[C@H](C(=O)N3C[C@H](O)C[C@H]3C(=O)NCc3ccc(-c4scnc4C)cc3)C(C)(C)C)CC2)n1
IC50 [1]: 670 nM

Second part, led by results:

DC50 [6]: 10.1 nM
IC50 [1]: 14.3 nM
Structure (SMILES): Cc1nc(Nc2ncc(C(=O)Nc3c(C)cccc3Cl)s2)cc(N2CCN(C(=O)CCCCCCCCC(=O)N[C@H](C(=O)N3C[C@H](O)C[C@H]3C(=O)NCc3ccc(-c4scnc4C)cc3)C(C)(C)C)CC2)n1

IC50 [1]: 12 nM
Structure (SMILES): Cc1nc(Nc2ncc(C(=O)Nc3c(C)cccc3Cl)s2)cc(N2CCN(C(=O)CCCc3cn(CCCC(=O)N[C@H](C(=O)N4C[C@H](O)C[C@H]4C(=O)NCc4ccc(-c5scnc5C)cc4)C(C)(C)C)nn3)CC2)n1

DC50 [6]: 37.9 nM
IC50 [1]: 22.4 nM
Structure (SMILES): Cc1nc(Nc2ncc(C(=O)Nc3c(C)cccc3Cl)s2)cc(N2CCN(C(=O)CCCCCCCC(=O)N[C@H](C(=O)N3C[C@H](O)C[C@H]3C(=O)NCc3ccc(-c4scnc4C)cc3)C(C)(C)C)CC2)n1

IC50 [1]: 3.4 nM
Structure (SMILES): Cc1nc(Nc2ncc(C(=O)Nc3c(C)cccc3Cl)s2)cc(N2CCN(CCCCCCOCCOCCOCCCCCC(=O)N[C@H](C(=O)N3C[C@H](O)C[C@H]3C(=O)NCc3ccc(-c4scnc4C)cc3)C(C)(C)C)CC2)n1

IC50 [1]: 14.4 nM
Structure (SMILES): Cc1nc(Nc2ncc(C(=O)Nc3c(C)cccc3Cl)s2)cc(N2CCN(C(=O)CCCCCCCCCCCCC(=O)N[C@H](C(=O)N3C[C@H](O)C[C@H]3C(=O)NCc3ccc(-c4scnc4C)cc3)C(C)(C)C)CC2)n1

IC50 [1]: 6.9 nM
Structure (SMILES): Cc1nc(Nc2ncc(C(=O)Nc3c(C)cccc3Cl)s2)cc(N2CCN(CCCCCNC(=O)CCCCCCCCC(=O)N[C@H](C(=O)N3C[C@H](O)C[C@H]3C(=O)NCc3ccc(-c4scnc4C)cc3)C(C)(C)C)CC2)n1

IC50 [1]: 0.9 nM
Structure (SMILES): Cc1nc(Nc2ncc(C(=O)Nc3c(C)cccc3Cl)s2)cc(N2CCN(CCO)CC2)n1 [DASATINIB]
Activity [16]: Active
growth inhibition (GI) [10]: inactive
Activity [14]: inactive

IC50 [1]: 14.9 nM
Structure (SMILES): Cc1nc(Nc2ncc(C(=O)Nc3c(C)cccc3Cl)s2)cc(N2CCN(C(=O)CCCCCOCCOCCOCCCCCC(=O)N[C@H](C(=O)N3C[C@H](O)C[C@H]3C(=O)NCc3ccc(-c4scnc4C)cc3)C(C)(C)C)CC2)n1
